Experimental data as given in patent US12029751B2, “Therapeutic agent for nervous system disease” (OSAKA UNIVERSITY, priority 2017, dated 2024).

System: Akt-mTOR pathway
Assay: Western blot of Akt, 4EBP1 and S6K phosphorylation (mechanism of macrophage induction)
Format: cell-based, mouse
Settings: IL-4 20 ng/ml + MeCbl 1 mM + RAD001 (200 nM), 30 minutes
Description: The J774A.1 cells (Example 5-1) were seeded on a dish having a diameter of 6 cm. After 4 days, proteins were collected using a cell lysis buffer containing a cocktail of protease inhibitors. The protein concentration was measured by BCA assay. Then, 50 μg of each sample was subjected to SDS-PAGE, and the electrophoresed proteins were transferred to a polyvinylidene difluoride membrane. The membrane was blocked with a blocking buffer for 1 hour, and then the proteins were allowed to react with primary antibodies at 4° C. overnight. The proteins were further allowed to react with a secondary antibody at room temperature for 1 hour and detected using ECL Western Blotting Detection System. To detect the M1 markers iNOS and IL-1β, lipopolysaccharide (LPS) (100 ng/ml) and methylcobalamin were added at 24 hours before collecting the proteins. To detect the M2 markers Arg1 and CD206, IL-4 (20 ng/ml) and methylcobalamin were added at 72 hours before collecting the proteins.
The mechanism of the macrophage induction (Example 5) by methylcobalamin was analyzed. Specifically, the analysis was carried out as follows. At 30 minutes after IL-4 and methylcobalamin (100 nM and 1 mM) were added, activation of Akt, 4EBP1, and S6K in the Akt-mTOR pathway (one of the major signaling pathways that induce M2 gene expression) was evaluated by Western blot. In the pathway, Akt phosphorylation occurs in response to an upstream signal, and 4EBP1 phosphorylation and S6K phosphorylation further occur through mTORC1 in the downstream. The S6K phosphorylation provides a negative feedback to the upstream of the signaling pathway. Western blot was performed as in Example 5-2, except that IL-4 (20 ng/ml), methylcobalamin, and RAD001 (200 nM) were added at 30 minutes before the proteins were collected, and the primary antibodies for detection were changed.

SMILES: CO[C@H]1C[C@@H]2CC[C@@H](C)[C@@](O)(O2)C(=O)C(=O)N2CCCC[C@H]2C(=O)O[C@H]([C@H](C)C[C@@H]2CC[C@@H](OCCO)[C@H](OC)C2)CC(=O)[C@H](C)/C=C(\C)[C@@H](O)[C@@H](OC)C(=O)[C@H](C)C[C@H](C)/C=C/C=C/C=C/1C [RAD001]
- p-4EBP1/4EBP1: suppressed
- p-Akt/Akt: rescued
- p-S6K/S6K: suppressed
